Measured values as given in patent US8980226B2, “Aerosolized fosfomycin/aminoglycoside combination for the treatment of bacterial respiratory infections” (Gilead Sciences, Inc., priority 2004, dated 2015).
Where two headings read alike, the source gives them in different places.

Key:
Assay type in all cases: cell-based
S. aureus = test: MIC, agar-plate dilution method
Description: (§1) “Minimal inhibitory concentration (MIC)” means the lowest concentration of antibiotic (s) that prevents visible growth after incubation for 18-20 hours at 35° C.
(§2) The efficacy of antibiotics and antibiotic combinations against Gram-positive and Gram-negative bacteria representative of species that cause respiratory infections in patients with cystic fibrosis, bronchiectasis, sinusitis, and ventilator-associated pneumonia were evaluated in MIC assays. P. aeruginosa strains were isolated from lung sputum samples collected from cystic fibrosis patients, blood cultures, respiratory tract infections, and skin or soft tissue infections. E. coli, H. influenzae, B. cepacia, S. maltophilia, K. pneumoniae, M. catarrhalis, S. aureus, S. pneumoniae, S. pyogenes, and E. faecalis were isolated from respiratory tract infections. E. coli ATCC 25922, P. aeruginosa ATCC 27853, and S. aureus ATCC 29213 were used as quality control stains.
(§3) The MICs of fosfomycin alone, tobramycin alone, or combinations of fosfomycin plus tobramycin were determined by the agar-plate dilution method according to NCCLS guidelines (NCCLS, 2003). Bacterial strains were streaked onto Trypic Soy Agar plates (PML Microbiologicals, Wilsonville, Oreg.) containing 5% defibrinated sheep blood (hereafter referred to as blood agar plates) and incubated overnight at 35° C. Two to three bacterial colonies from the overnight cultures were inoculated into 3 mL of sterile normal saline, vortexed briefly, and adjusted to a 0.5 McFarland standard (NCCLS, 2003). The bacterial suspension was diluted 1:40 in sterile normal saline and served as the inoculum. Mueller-Hinton agar plates (hereafter referred to as MHA) were prepared by combining 16 g of agarose (Becton-Dickinson, Sparks, Md.), 22 g of Mueller-Hinton broth powder (Becton-Dickinson, Sparks, Md.), and adjusted to 1 L with distilled water. The agar was sterilized by autoclaving, cooled to 55° C., and supplemented with 25 μg/mL of glucose-6-phosphate (Sigma-Aldrich, St. Louis, Mo.). Twenty-five mL of cooled agar was aliquoted into 50 mL conical tubes and supplemented with appropriate concentrations of antibiotic to achieve concentrations ranging from 0.06 μg/mL to 512 μg/mL. After gently mixing the agar and antibiotic, the suspension was poured into sterile 100 mm petri dishes and allowed to solidify at room temperature. The antibiotic agar plates were inoculated with approximately 2×10^4 CFU/spot with a 48-point inoculator (Sigma-Aldrich, St. Louis, Mo.). The MIC was defined as the lowest concentration of antibiotic (s) that prevented visible growth after incubation for 18-20 hours at 35° C. The efficacy of a particular antibiotic or antibiotic combination on large populations of P. aeruginosa was determined by calculating the MIC50 and MIC90 values. The MIC50 value was defined as the concentration of antibiotic(s) which inhibited 50% of the P. aeruginosa strains. The MIC90 value was defined as the concentration of antibiotic(s) which inhibited 90% of the P. aeruginosa strains (Wiedemann and Grimm, 1996).

S. pyogenes = test: MIC, agar-plate dilution method; conditions: Streptococcus pyogenes
Description: as §1, §2, §3

M. catarrhalis = test: MIC, agar-plate dilution method
Description: as §1, §2, §3

B. cepacia = test: MIC, agar-plate dilution method
Description: as §1, §2, §3

K. pneumoniae = test: MIC, agar-plate dilution method
Description: as §1, §2, §3

E. coli = test: MIC, agar-plate dilution method; conditions: Escherichia coli
Description: as §1, §2, §3

P. aeruginosa = test: MIC, agar-plate dilution method; conditions: Pseudomonas aeruginosa
Description: as §1, §2, §3

S. maltophilia = test: MIC, agar-plate dilution method; conditions: Stenotrophomonas maltophilia
Description: as §1, §2, §3

E. faecalis = test: MIC, agar-plate dilution method; conditions: Enterococcus faecalis
Description: as §1, §2, §3

H. influenzae = test: MIC, agar-plate dilution method
Description: as §1, §2, §3

S. pneumoniae = test: MIC, agar-plate dilution method; conditions: Streptococcus pneumoniae
Description: as §1, §2, §3

[1] = test system: 100 P. aeruginosa strains isolated from lung sputum samples from cystic fibrosis patients; test: MIC50 and MIC90 for 100 P. aeruginosa strains, without mucin; conditions: Pseudomonas aeruginosa
Description: as §3

[2] = Staphylococcus aureus, S. aureus COR-051 (MSSA), read-out: MIC
[3] = Staphylococcus aureus, S. aureus COR-055 (MRSA), read-out: MIC
[4] = Moraxella catarrhalis, M. catarrhalis COR-109, read-out: MIC
[5] = Klebsiella pneumoniae, K. pneumoniae COR-042, read-out: MIC
[6] = P. aeruginosa COR-003, read-out: MIC
[7] = P. aeruginosa COR-021, read-out: MIC
[8] = S. maltophilia COR-083, read-out: MIC
[9] = Haemophilus influenzae, H. influenzae COR-042, read-out: MIC

Structure (SMILES)	MIC (S. aureus; [2]) [µg/mL]	MIC (S. aureus; [3]) [µg/mL]	MIC (S. pyogenes; S. pyogenes COR-104) [µg/mL]	MIC (S. pyogenes; S. pyogenes COR-105) [µg/mL]	MIC (M. catarrhalis; M. catarrhalis COR-113) [µg/mL]	MIC (M. catarrhalis; [4]) [µg/mL]	MIC (K. pneumoniae; [5]) [µg/mL]	MIC (E. coli; E. coli COR-032) [µg/mL]	MIC (E. coli; E. coli COR-039) [µg/mL]	MIC (E. coli; E. coli COR-040) [µg/mL]	MIC (P. aeruginosa; [6]) [µg/mL]	MIC (P. aeruginosa; [7]) [µg/mL]	MIC (S. maltophilia) [µg/mL]	MIC (S. maltophilia; [8]) [µg/mL]	MIC (E. faecalis; E. faecalis COR-099) [µg/mL]	MIC (E. faecalis; E. faecalis COR-103) [µg/mL]	MIC (H. influenzae; [9]) [µg/mL]	MIC (S. pneumoniae; S. pneumoniae COR-061) [µg/mL]	MIC (S. pneumoniae; S. pneumoniae COR-068) [µg/mL]	MIC50 [1] [µg/mL]	other results
C[C@@H]1O[C@@H]1P(=O)(O)O [Fosfomycin]	1	4	64	16	4	4	8	1	64	1	16	8	128	64	32	32	8	32	8	64	MIC (S. aureus; S. aureus COR-060 (GISA)): 2 µg/mL; MIC (S. aureus; Staphylococcus aureus, S. aureus COR-059, read-out: MIC): 2 µg/mL; MIC (B. cepacia; B. cepacia COR-098): ≧2048 μg/mL; MIC (B. cepacia; Burkholderia cepacia, B. cepacia COR-090, read-out: MIC): ≥ 2050 µg/mL; MIC (K. pneumoniae; Klebsiella pneumoniae, K. pneumoniae COR-049): 128 µg/mL; MIC (P. aeruginosa; P. aeruginosa COR-009): 1020 µg/mL; MIC (P. aeruginosa; P. aeruginosa COR-027): 128 µg/mL; MIC (S. maltophilia; S. maltophilia COR-087, read-out: MIC): ≥ 512 µg/mL; MIC (H. influenzae; Haemophilus influenzae, H. influenzae COR-049): 128 µg/mL; MIC90 [1]: ≥ 512 µg/mL
NC[C@H]1O[C@H](O[C@H]2[C@H](O)[C@@H](O[C@H]3O[C@H](CO)[C@@H](O)[C@H](N)[C@H]3O)[C@H](N)C[C@@H]2N)[C@H](N)C[C@@H]1O [Tobramycin]	0.25	0.25	32	64	8	8	0.5	0.5	0.25	32	0.5	64	128	512	512	8	0.5	64	16	2	MIC (S. aureus; Staphylococcus aureus, S. aureus COR-059): 128 µg/mL; MIC (S. aureus; Staphylococcus aureus, S. aureus COR-060 (GISA), read-out: MIC): 64 µg/mL; MIC (B. cepacia; Burkholderia cepacia, B. cepacia COR-090): 128 µg/mL; MIC (B. cepacia; Burkholderia cepacia, B. cepacia COR-098, read-out: MIC): 64 µg/mL; MIC (K. pneumoniae; K. pneumoniae COR-049): 0.5 µg/mL; MIC (P. aeruginosa; P. aeruginosa COR-009, read-out: MIC): 2050 µg/mL; MIC (P. aeruginosa; P. aeruginosa COR-027, read-out: MIC): 0.5 µg/mL; MIC (S. maltophilia; S. maltophilia COR-082, read-out: MIC): 4 µg/mL; MIC (H. influenzae; H. influenzae COR-049): 0.5 µg/mL; MIC90 [1]: 16 µg/mL
